Data published in US6342261B1, “Method of preserving foods using noble gases” (American Air Liquide, priority 1992, dated 2002).
“And” between values parts separate entries of the source, which are not always exact repeats. Identical values can stand only once.

Key:
[1] = tested on: Class V. Isomerases (EC 5); assay: Enzyme activity under gas: Class V isomerases (enzyme not named); format: biochemical
Description: (§1) Sealed cuvettes containing enzymes representative of and in fact important in food product degradation processes were thoroughly purged and filled with assay gases. Injection of gassed substrate solutions started the reactions, which were generally conducted under optimal conditions. These were monitored […] by scanning uv/vis spectrophotometry. All controls were conducted for oxygen, nitrogen and carbon dioxide. A range of temperatures and pressures were employed. An example protocol is appended. Results were expressed in real-time, and transformed to calculate yield and rate differences for the reaction. Over 50 exemplary enzymes were so assayed. Enzymes selected for examination from various products are assayed in precisely the same manner, but always in terms of relative activity in comparison with that product in air or another control gas or gas mixture.
(§2) The follwing Table summarizes the maximum inhibition of enzymes activity realized with various noble gases under various storage conditions.

[2] = tested on: Aerobes; assay: Total microorganisms from product trials: aerobes; format: cell-based
Description: (§3) Many different products were assayed under a wide variety of temperatures and pressures, packaging treatments, and post-packaging handling. In the general experiment, sterile pouches of impermeable film were filled with freshly-obtained food products under recommended handling regimes. Each was then purged thoroughly with the gas mixture to be tested. Then sealed, the pouch was further treated by cooking, cold storage, or other parameter, or else was not. The sealed pouch was stored at room, cold, or freezing temperature, and periodically sampled for microorganism counts (total, aerobic, anaerobic, Pseudomonas, Lactobacilli). It was also studied for observable deterioration and scored. Some samples were subjected to appropriate chemical analysis. Others were sampled for specific enzyme activities as above. All told, the average experiment consisted of replicate samples of product being assayed for microbial counts, microbial identifications, enyzme activities, chemical oxidation, discoloration, odor and/or taste changes, and final carbon dioxide and oxygen concentrations. Microbes and enzymes known to be important in the degradation of each individual product were selected for examination and scoring from the literature.

[3] = tested on: Aspartate aminotransferase (EC 2.6.1.1); assay: Enzyme activity under gas: aspartate aminotransferase; format: biochemical
Description: as §1, §2

[4] = tested on: Lipase EC 3.1.1.3; assay: Enzyme activity under gas: lipase; format: biochemical
Description: as §1, §2

[5] = tested on: Yeasts; assay: Total microorganisms from product trials: yeasts; format: cell-based
Description: as §3

[6] = tested on: Molds; assay: Total microorganisms from product trials: molds; format: cell-based
Description: as §3

[7] = tested on: Anaerobes; assay: Total microorganisms from product trials: anaerobes; format: cell-based
Description: as §3

[8] = target: Gamma-glutamyl transpeptidase EC 2.3.2.2 (Homo sapiens, UniProt P19440); assay: Enzyme activity under gas: gamma-glutamyl transpeptidase; format: biochemical
Description: as §1, §2

[9] = tested on: Acetyl-CoA synthetase EC 6.2.1.1; assay: Enzyme activity under gas: acetyl-CoA synthetase; format: biochemical
Description: as §1, §2

[10] = tested on: Tyrosinase EC 1.14.18.1; assay: Enzyme activity under gas: tyrosinase; format: biochemical; settings: 25°, optimal reaction conditions, simple saturation of solution with gas
Description: as §1, §2
at 25° and optimal reaction conditions, simple saturation of solution with gas: […]

[11] = target: Glucose oxidase EC 1.1.3.4 (Aspergillus niger, UniProt P13006); assay: Enzyme activity under gas: glucose oxidase; format: biochemical
Description: as §1, §2

[12] = tested on: Yeasts and molds; assay: Yeast and mold growth on bread and pasta under gases; format: cell-based
Description: as §3, with “concentrations.” for “concentrations. Microbes and enzymes known to be important in the degradation of each individual product were selected for examination and scoring from the literature.”

[13] = Chemical oxidation reactions of food components under gases; settings: even in the presence of oxygen; pigments, phenolics, ascorbic acid of the product section
Excerpt: Other oxygenated species, such as carbon dioxide are reactively destructive.
That is, in accordance with the present invention, it has been discovered that certain gases can directly affect the oxidation rate of chemicals and not merely slow oxidation only as function of physical and inert displacement of oxygen. Generally, the present invention is effected by contacting the chemicals or chemical preparations during at least a protion of storage thereof to a noble gas, a mixture of noble gases or a gaseous mixture containing at least one noble gas.

Sequence of Glucose oxidase EC 1.1.3.4 (P13006 17-605): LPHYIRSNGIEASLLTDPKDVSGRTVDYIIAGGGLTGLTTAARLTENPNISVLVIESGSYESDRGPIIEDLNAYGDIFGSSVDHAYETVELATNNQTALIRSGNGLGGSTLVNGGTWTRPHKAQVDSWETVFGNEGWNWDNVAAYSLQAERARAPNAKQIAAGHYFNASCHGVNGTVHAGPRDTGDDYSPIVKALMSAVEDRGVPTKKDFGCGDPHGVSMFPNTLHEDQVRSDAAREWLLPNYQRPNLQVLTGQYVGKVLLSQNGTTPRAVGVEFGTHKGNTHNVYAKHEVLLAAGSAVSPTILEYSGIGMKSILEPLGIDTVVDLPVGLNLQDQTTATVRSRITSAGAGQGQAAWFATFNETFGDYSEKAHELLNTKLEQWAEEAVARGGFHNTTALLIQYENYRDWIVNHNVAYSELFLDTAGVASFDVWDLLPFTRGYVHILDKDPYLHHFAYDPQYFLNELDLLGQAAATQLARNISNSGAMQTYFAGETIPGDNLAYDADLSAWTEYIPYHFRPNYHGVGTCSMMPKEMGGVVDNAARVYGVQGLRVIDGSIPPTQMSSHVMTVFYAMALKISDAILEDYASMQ
Sequence of Gamma-glutamyl transpeptidase EC 2.3.2.2 (P19440 whole entry): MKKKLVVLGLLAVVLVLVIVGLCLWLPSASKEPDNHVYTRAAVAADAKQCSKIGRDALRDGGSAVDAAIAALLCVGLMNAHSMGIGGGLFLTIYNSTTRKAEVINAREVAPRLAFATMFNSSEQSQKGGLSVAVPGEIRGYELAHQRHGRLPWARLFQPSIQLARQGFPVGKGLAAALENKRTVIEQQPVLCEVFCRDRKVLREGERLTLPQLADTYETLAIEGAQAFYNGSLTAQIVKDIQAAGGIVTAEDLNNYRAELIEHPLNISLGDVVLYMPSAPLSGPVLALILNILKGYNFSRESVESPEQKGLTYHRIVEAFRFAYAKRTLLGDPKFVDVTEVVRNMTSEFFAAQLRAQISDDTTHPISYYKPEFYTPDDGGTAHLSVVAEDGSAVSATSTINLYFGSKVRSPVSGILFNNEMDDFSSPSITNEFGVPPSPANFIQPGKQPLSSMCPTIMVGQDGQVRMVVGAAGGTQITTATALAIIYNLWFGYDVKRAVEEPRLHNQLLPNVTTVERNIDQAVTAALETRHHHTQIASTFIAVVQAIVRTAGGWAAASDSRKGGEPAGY

[Ar] [Ar, argon]
Result, Class V isomerases [1]: −37%
% Inhibition Compared to 100% Air ([2]; Carrots): 33%
% Inhibition Compared to 100% Air ([2]; Fish Fillets): 13%
% Inhibition Compared to 100% Air ([2]; Green Beans, Refrigerated): 11%
% Inhibition Compared to 100% Air ([2]; Green Beans, Room Temperature): 2%
% Inhibition Compared to 100% Air ([2]; Ground Beef): 0.4%
% Inhibition Compared to 100% Air ([2]; Lettuce): 0.4%
% Inhibition Compared to 100% Air ([2]; Mixed Salad (Chef Salad)): 12%
% Inhibition Compared to 100% Air ([2]; Shrimp): 1%
% Inhibition Compared to 100% Air ([2]; Steaks): 13%
% Inhibition Compared to 100% Air ([2]; Strawberries): 40%
% Inhibition Compared to 100% Air ([2]; Tomatoes): 96%
Result (inhibition), maximum inhibition of enzyme activity [3]: −17%
Result, With Lipase [4]: −18%
inhibition (up to) [4]: up to −20%
% Inhibition Compared to 100% Air ([5]; Carrots): 49%
% Inhibition Compared to 100% Air ([5]; Fish Fillets): 35%
% Inhibition Compared to 100% Air ([5]; Green Beans, Refrigerated): 20%
% Inhibition Compared to 100% Air ([5]; Green Beans, Room Temperature): 10%
% Inhibition Compared to 100% Air ([5]; Ground Beef): 28%
% Inhibition Compared to 100% Air ([5]; Lettuce): 28%
% Inhibition Compared to 100% Air ([5]; Mixed Salad (Chef Salad)): 47%
% Inhibition Compared to 100% Air ([5]; Shrimp): 2%
% Inhibition Compared to 100% Air ([5]; Smelt): 17%
% Inhibition Compared to 100% Air ([5]; Steaks): 16%
% Inhibition Compared to 100% Air ([5]; Strawberries): 12%
% Inhibition Compared to 100% Air ([5]; Tomatoes): 38%
% Inhibition Compared to 100% Air ([6]; Carrots): 20%
% Inhibition Compared to 100% Air ([6]; Fish Fillets): 15%
% Inhibition Compared to 100% Air ([6]; Green Beans, Refrigerated): 25%
% Inhibition Compared to 100% Air ([6]; Green Beans, Room Temperature): 15%
% Inhibition Compared to 100% Air ([6]; Ground Beef): 4%
% Inhibition Compared to 100% Air ([6]; Lettuce): 4%
% Inhibition Compared to 100% Air ([6]; Mixed Salad (Chef Salad)): 2%
% Inhibition Compared to 100% Air ([6]; Shrimp): 5%
% Inhibition Compared to 100% Air ([6]; Smelt): 22%
% Inhibition Compared to 100% Air ([6]; Steaks): 27%
% Inhibition Compared to 100% Air ([6]; Strawberries): 80%
% Inhibition Compared to 100% Air ([6]; Tomatoes): 51%
% Inhibition Compared to 100% CO2 ([7]; Carrots): 9%
% Inhibition Compared to 100% CO2 ([7]; Fish Fillets): 2%
% Inhibition Compared to 100% CO2 ([7]; Green Beans, Refrigerated): 61%
% Inhibition Compared to 100% CO2 ([7]; Ground Beef): 16%
% Inhibition Compared to 100% Air ([7]; Lettuce): 16%
% Inhibition Compared to 100% CO2 ([7]; Mixed Salad (Chef Salad)): 6% and 1%
% Inhibition Compared to 100% CO2 ([7]; Shrimp): 4%
% Inhibition Compared to 100% CO2 ([7]; Smelt): 30%
% Inhibition Compared to 100% CO2 ([7]; Steaks): 6%
% Inhibition Compared to 100% CO2 ([7]; Tomatoes): 22%
Result (inhibition), maximum inhibition of enzyme activity [8]: −5%
Result [9]: −75%
Result (inhibition vs air), maximum inhibition of enzyme activity [10]: −60%
Result (inhibition), maximum inhibition of enzyme activity [11]: −85.8%

O=C=O [CO2, carbon dioxide, reference compound]
% Inhibition Compared to 100% Air ([2]; Carrots): 24%
% Inhibition Compared to 100% Air ([2]; Fish Fillets): 14%
% Inhibition Compared to 100% Air ([2]; Green Beans, Refrigerated): 26%
% Inhibition Compared to 100% Air ([2]; Green Beans, Room Temperature): 10%
% Inhibition Compared to 100% Air ([2]; Ground Beef): 9%
% Inhibition Compared to 100% Air ([2]; Lettuce): 9%
% Inhibition Compared to 100% Air ([2]; Mixed Salad (Chef Salad)): 2%
% Inhibition Compared to 100% Air ([2]; Shrimp): 4%
% Inhibition Compared to 100% Air ([2]; Steaks): 21%
% Inhibition Compared to 100% Air ([2]; Strawberries): 48%
% Inhibition Compared to 100% Air ([2]; Tomatoes): 92%
% Inhibition Compared to 100% Air ([5]; Carrots): 35%
% Inhibition Compared to 100% Air ([5]; Fish Fillets): 36%
% Inhibition Compared to 100% Air ([5]; Green Beans, Refrigerated): 55%
% Inhibition Compared to 100% Air ([5]; Green Beans, Room Temperature): 19%
% Inhibition Compared to 100% Air ([5]; Ground Beef): 4%
% Inhibition Compared to 100% Air ([5]; Lettuce): 4%
% Inhibition Compared to 100% Air ([5]; Mixed Salad (Chef Salad)): 63%
% Inhibition Compared to 100% Air ([5]; Shrimp): 8%
% Inhibition Compared to 100% Air ([5]; Smelt): 0.8%
% Inhibition Compared to 100% Air ([5]; Steaks): 15%
% Inhibition Compared to 100% Air ([5]; Strawberries): 32%
% Inhibition Compared to 100% Air ([5]; Tomatoes): 80%
% Inhibition Compared to 100% Air ([6]; Carrots): 3%
% Inhibition Compared to 100% Air ([6]; Fish Fillets): 18%
% Inhibition Compared to 100% Air ([6]; Green Beans, Refrigerated): 2%
% Inhibition Compared to 100% Air ([6]; Green Beans, Room Temperature): 3%
% Inhibition Compared to 100% Air ([6]; Ground Beef): 2%
% Inhibition Compared to 100% Air ([6]; Lettuce): 2%
% Inhibition Compared to 100% Air ([6]; Mixed Salad (Chef Salad)): 4%
% Inhibition Compared to 100% Air ([6]; Shrimp): 2%
% Inhibition Compared to 100% Air ([6]; Smelt): 29%
% Inhibition Compared to 100% Air ([6]; Steaks): 17%
% Inhibition Compared to 100% Air ([6]; Strawberries): 100%
% Inhibition Compared to 100% Air ([6]; Tomatoes): 62%
depression of yeasts and molds with respect to nitrogen or air ([12]; Bread): may be superior
depression of yeasts and molds with respect to nitrogen or air ([12]; Pasta): may be superior
Result (inhibition vs air), maximum inhibition of enzyme activity [10]: 0%

N#N [Gas N2, nitrogen, reference compound]
inhibition of chemical oxidation, order of effect of the gases [13]: has no such ability
Result (inhibition vs air), maximum inhibition of enzyme activity [10]: 0%
